The first test has as its system NCI-H2347. The test is described as follows: relative viability (nuclei count vs DMSO), 5 days (fraction); higher = more cells survive. Conditions: first compound 0.08 µM. The method, boiled down:
(§1)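 Lung cancer cell lines in 1536-well plates got either a single drug or a fixed anchor-drug dose together with five library-drug doses (not always all listed) in √10 steps, by pin tool, on the day after seeding. Nuclei were counted after 5 days, and relative viability is the treated-to-vehicle ratio of nuclei counts. Values are medians of duplicate plates.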
`CCCCCCCCCCCC1=C(O)C(=O)C=C(O)C1=O` [Embelin] + N=C(N)NC(=N)NCCc1ccccc1 [Phenformin] (partner 250 µM): the relative viability turned out to be 0.308.

`CCCCCCCCCCCC1=C(O)C(=O)C=C(O)C1=O` [Embelin] + CCNC(=O)c1noc(-c2cc(C(C)C)c(O)cc2O)c1-c1ccc(CN2CCOCC2)cc1 [Luminespib] (partner 0.01 µM) had a relative viability of 0.73.

In turn, `CCCCCCCCCCCC1=C(O)C(=O)C=C(O)C1=O` [Embelin] + Cc1nc(Nc2ncc(C(=O)Nc3c(C)cccc3Cl)s2)cc(N2CCN(CCO)CC2)n1 [Dasatinib] (partner 0.075 µM) gave a relative viability of 0.332.

For `CCCCCCCCCCCC1=C(O)C(=O)C=C(O)C1=O` [Embelin] + COc1cccc2cc(-c3nc([C@H]4CC[C@H](C(=O)O)CC4)n4ncnc(N)c34)[nH]c12 [OSI-027] (partner 0.5 µM), the relative viability was determined as 0.428.

For the molecule `CCCCCCCCCCCC1=C(O)C(=O)C=C(O)C1=O` [Embelin] + Nc1nc2[nH]cc(CCc3ccc(C(=O)N[C@@H](CCC(=O)O)C(=O)O)cc3)c2c(=O)[nH]1 [Pemetrexed] (partner 0.2 µM), the relative viability was 0.413.

The test is the same for the next values; noted with them: first compound 0.8 µM.
`CCCCCCCCCCCC1=C(O)C(=O)C=C(O)C1=O` [Embelin] + N=C(N)NC(=N)NCCc1ccccc1 [Phenformin] (partner 250 µM) returned a relative viability of 0.386.

Take `CCCCCCCCCCCC1=C(O)C(=O)C=C(O)C1=O` [Embelin] + CCNC(=O)c1noc(-c2cc(C(C)C)c(O)cc2O)c1-c1ccc(CN2CCOCC2)cc1 [Luminespib] (partner 0.01 µM): the relative viability turned out to be 0.489.

`CCCCCCCCCCCC1=C(O)C(=O)C=C(O)C1=O` [Embelin] + Cc1nc(Nc2ncc(C(=O)Nc3c(C)cccc3Cl)s2)cc(N2CCN(CCO)CC2)n1 [Dasatinib] (partner 0.075 µM) returned a relative viability of 0.33.

`CCCCCCCCCCCC1=C(O)C(=O)C=C(O)C1=O` [Embelin] + COc1cccc2cc(-c3nc([C@H]4CC[C@H](C(=O)O)CC4)n4ncnc(N)c34)[nH]c12 [OSI-027] (partner 0.5 µM) showed a relative viability of 0.468.

As for `CCCCCCCCCCCC1=C(O)C(=O)C=C(O)C1=O` [Embelin] + Nc1nc2[nH]cc(CCc3ccc(C(=O)N[C@@H](CCC(=O)O)C(=O)O)cc3)c2c(=O)[nH]1 [Pemetrexed] (partner 0.2 µM), the relative viability is 0.482.

The test is the same for the next values; noted with them: first compound 2.53 µM.
Molecule `CCCCCCCCCCCC1=C(O)C(=O)C=C(O)C1=O` [Embelin] + N=C(N)NC(=N)NCCc1ccccc1 [Phenformin] (partner 250 µM) gave a relative viability of 0.345.

`CCCCCCCCCCCC1=C(O)C(=O)C=C(O)C1=O` [Embelin] + CCNC(=O)c1noc(-c2cc(C(C)C)c(O)cc2O)c1-c1ccc(CN2CCOCC2)cc1 [Luminespib] (partner 0.01 µM) came in with a relative viability of 0.686.

Molecule `CCCCCCCCCCCC1=C(O)C(=O)C=C(O)C1=O` [Embelin] + Cc1nc(Nc2ncc(C(=O)Nc3c(C)cccc3Cl)s2)cc(N2CCN(CCO)CC2)n1 [Dasatinib] (partner 0.075 µM) came in with a relative viability of 0.296.

Take `CCCCCCCCCCCC1=C(O)C(=O)C=C(O)C1=O` [Embelin] + COc1cccc2cc(-c3nc([C@H]4CC[C@H](C(=O)O)CC4)n4ncnc(N)c34)[nH]c12 [OSI-027] (partner 0.5 µM): the relative viability came to 0.412.

`CCCCCCCCCCCC1=C(O)C(=O)C=C(O)C1=O` [Embelin] + Nc1nc2[nH]cc(CCc3ccc(C(=O)N[C@@H](CCC(=O)O)C(=O)O)cc3)c2c(=O)[nH]1 [Pemetrexed] (partner 0.2 µM) gave a relative viability of 0.448.

Staying with this test, now noted: first compound 8 µM.
The molecule `CCCCCCCCCCCC1=C(O)C(=O)C=C(O)C1=O` [Embelin] + N=C(N)NC(=N)NCCc1ccccc1 [Phenformin] (partner 250 µM) showed a relative viability of 0.377.

With `CCCCCCCCCCCC1=C(O)C(=O)C=C(O)C1=O` [Embelin] + CCNC(=O)c1noc(-c2cc(C(C)C)c(O)cc2O)c1-c1ccc(CN2CCOCC2)cc1 [Luminespib] (partner 0.01 µM), the relative viability amounted to 0.62.

Molecule `CCCCCCCCCCCC1=C(O)C(=O)C=C(O)C1=O` [Embelin] + Cc1nc(Nc2ncc(C(=O)Nc3c(C)cccc3Cl)s2)cc(N2CCN(CCO)CC2)n1 [Dasatinib] (partner 0.075 µM) displayed a relative viability of 0.309.

For the molecule `CCCCCCCCCCCC1=C(O)C(=O)C=C(O)C1=O` [Embelin] + COc1cccc2cc(-c3nc([C@H]4CC[C@H](C(=O)O)CC4)n4ncnc(N)c34)[nH]c12 [OSI-027] (partner 0.5 µM), the relative viability was 0.527.

As to `CCCCCCCCCCCC1=C(O)C(=O)C=C(O)C1=O` [Embelin] + Nc1nc2[nH]cc(CCc3ccc(C(=O)N[C@@H](CCC(=O)O)C(=O)O)cc3)c2c(=O)[nH]1 [Pemetrexed] (partner 0.2 µM), the relative viability was 0.434.

The subject of another test is NCI-H441. The test is described as above. Conditions: first compound 0.08 µM. In outline: as §1
`CCCCCCCCCCCC1=C(O)C(=O)C=C(O)C1=O` [Embelin] + N=C(N)NC(=N)NCCc1ccccc1 [Phenformin] (partner 250 µM) returned a relative viability of 0.698.

As to `CCCCCCCCCCCC1=C(O)C(=O)C=C(O)C1=O` [Embelin] + CCNC(=O)c1noc(-c2cc(C(C)C)c(O)cc2O)c1-c1ccc(CN2CCOCC2)cc1 [Luminespib] (partner 0.01 µM), the relative viability was determined as 0.32.

In the case of `CCCCCCCCCCCC1=C(O)C(=O)C=C(O)C1=O` [Embelin] + Cc1nc(Nc2ncc(C(=O)Nc3c(C)cccc3Cl)s2)cc(N2CCN(CCO)CC2)n1 [Dasatinib] (partner 0.075 µM), the relative viability came to 0.645.

In turn, `CCCCCCCCCCCC1=C(O)C(=O)C=C(O)C1=O` [Embelin] + COc1cccc2cc(-c3nc([C@H]4CC[C@H](C(=O)O)CC4)n4ncnc(N)c34)[nH]c12 [OSI-027] (partner 0.5 µM) came in with a relative viability of 0.688.

In turn, `CCCCCCCCCCCC1=C(O)C(=O)C=C(O)C1=O` [Embelin] + Nc1nc2[nH]cc(CCc3ccc(C(=O)N[C@@H](CCC(=O)O)C(=O)O)cc3)c2c(=O)[nH]1 [Pemetrexed] (partner 0.2 µM) returned a relative viability of 0.255.

Still in this test, the particulars now being: first compound 0.8 µM.
On to `CCCCCCCCCCCC1=C(O)C(=O)C=C(O)C1=O` [Embelin] + N=C(N)NC(=N)NCCc1ccccc1 [Phenformin] (partner 250 µM), for which the relative viability turned out to be 0.897.

`CCCCCCCCCCCC1=C(O)C(=O)C=C(O)C1=O` [Embelin] + CCNC(=O)c1noc(-c2cc(C(C)C)c(O)cc2O)c1-c1ccc(CN2CCOCC2)cc1 [Luminespib] (partner 0.01 µM) had a relative viability of 0.294.

Take `CCCCCCCCCCCC1=C(O)C(=O)C=C(O)C1=O` [Embelin] + Cc1nc(Nc2ncc(C(=O)Nc3c(C)cccc3Cl)s2)cc(N2CCN(CCO)CC2)n1 [Dasatinib] (partner 0.075 µM): the relative viability came to 0.633.

For `CCCCCCCCCCCC1=C(O)C(=O)C=C(O)C1=O` [Embelin] + COc1cccc2cc(-c3nc([C@H]4CC[C@H](C(=O)O)CC4)n4ncnc(N)c34)[nH]c12 [OSI-027] (partner 0.5 µM), the relative viability came out at 0.742.

`CCCCCCCCCCCC1=C(O)C(=O)C=C(O)C1=O` [Embelin] + Nc1nc2[nH]cc(CCc3ccc(C(=O)N[C@@H](CCC(=O)O)C(=O)O)cc3)c2c(=O)[nH]1 [Pemetrexed] (partner 0.2 µM) had a relative viability of 0.261.

The test is the same for the next values; noted with them: first compound 2.53 µM.
Turning to `CCCCCCCCCCCC1=C(O)C(=O)C=C(O)C1=O` [Embelin] + N=C(N)NC(=N)NCCc1ccccc1 [Phenformin] (partner 250 µM), the relative viability came to 0.957.

(Values after the supplement of paper PMC10307832.)
